For assay [1], the system named is Botrytis cinerea. Nature of the assay: Antifungal activity test against various pathogenic fungi, hypha extension on PDA plates (Test Example 3). Format: cell-based. To be noted: for inhibition at 1.6 ppm: read-out: Growth Inhibition B.c (1.6).
In assay [2] the test system is wheat powdery mildew. Kind of assay: Test of control effect on wheat powdery mildew (Test Example 1). Format: in vivo. As to conditions: wettable powder 125 mg/l, 100 liters/10 a, sprinkled on wheat seedlings (Nourin 64) before inoculation, examined 9th to 14th day after inoculation; for pest or weed control at 125 µg/mL: Triticum aestivum. The procedure:
Wettable powders were prepared from compounds of the present invention I-1 to I-27 and comparative compounds (a) to (d) , (m-1) and (m-3). The obtained wettable powder was diluted and suspended with water to provide the predetermined concentration (125 mg/l), and was sprinkled onto seedlings of wheat (variety: "Nourin 64") at the first to the second leaf period which were cultivated using square plastic pots (size: 6.4 cm x 6.4 cm) in a rate of 100 liters/10 a (ares). After drying the sprinkled leaves with air, a suspension of wheat powdery mildew spores taken from infected leaves was inoculated by spraying onto the sprinkled leaves. They were supervised in a green house (temperature: 20 to 24°C, relative humidity: 20 to 70 RH). On the 9th to 14th day after the inoculation, the infection degree was examined according to the following scale and the control value of each compound was calculated by the following calculation equation 1. [table] (Equation 1) Control value = (1 - infection degree of treated zone/infection degree of untreated zone) x 100 (%) [formula] The control values of each compound are shown in Table 8.

Assay [3] relates to cucumber powdery mildew. Kind of assay: Test of control effect on cucumber powdery mildew (Test Example 2). To be noted: wettable powder 100 mg/l, 100 liters/10 a, sprinkled on cucumbers (Sagamihanpakufushinari) before inoculation, examined 9th to 14th day after inoculation; for pest or weed control at 100 µg/mL: Cucumis sativus. Format: in vivo. Here is the method:
The wettable powders formulated by using each of the compounds I-1 to 27 according to the present invention and the comparative compounds (a) to (d), (m-1) and (m-3) were each diluted and suspended with water to a predetermined concentration (100 mg/l), the suspension was sprinkled over the first to the second leaf period cucumbers (variety: "[…]") cultivated by using a square plastic pot (size: 6. 4 cm x 6. 4 cm) in a rate of 100 liters/10 a (ares). After the sprinkled leaves were air-dried, the spores were inoculated over the leaves by sprinkling the same with a brush from an infected leaf, a disease was contracted in a glass house (temperature: 20 to 24°C, relative humidity: 20 to 70 RH). On the 9th to 14th day after the inoculation, the infection degree was examined according to the following scale and the control value of each compound was calculated by the following calculation equation 2: [table] (Equation 2) Control value = (1 - infection degree of treated zone/infection degree of untreated zone) x 100 (%) [formula] The control values of each compound are shown in Table 9.

Assay [4] deals with wheat powdery mildew. Kind of assay: Permeable mobility fungicidal effect test in leaf section of wheat powdery mildew (Test Example 4). Format: in vivo. The procedure: In the test example 4, permeable mobility fungicidal effect test was performedon the leaf section of wheat powdery mildew with regard to the compounds I-1 to 27 according to the present invention and the comparative compounds (a) to (d), and (m-1) to (m-3) with the method described later. The compound in the form of a wettable powder obtained by Formulation 2 or the like was diluted and suspended with water to a predetermined concentration (200mg/l), and 0.5 µl of the suspension was applied to a 2 to 3 cm leaf portion from the root of the three leaves of the 4th to 4.5th leaf period wheat (variety: Abukumawase) cultured by using a square plastic pot (size: 6.4 cm x 6.4 cm). After these wheat leaves were subject to still standing in a glass house (temperature: 20 to 24C, relative humidity: 20 to 70 RH) for one day, the spores of wheat powdery mildew were inoculated over the leaves by sprinkling the same with a brush from an infected leaf, a disease was contracted in the same glass house. The length of a non-contracted area generated from the applied portion to the direction of the leaf top was measured, and a relative mobility to the compound (m-2) was calculated with the following calculation […] by using the comparative compound (m-2) as a standard compound. (Equation 4) Relative mobility = (Length of non-contracted area in each chemical section (cm)/Length of non-contracted area of compound (m-2) (cm)) [formula]

Assay [5] concerns Rhynchosporium secalis. Nature of the assay: Antifungal activity test against various pathogenic fungi, hypha extension on PDA plates (Test Example 3). Format: cell-based. To be noted: read-out: Growth Inhibition R.s (100).
Assay [6] has as its system Microdochium nivale. The assay is described as above. Format: cell-based. As to conditions: read-out: Growth Inhibition M.n (3.2).
The test system of assay [7] is Pyricularia oryzae. Kind of assay: microbe, parasite or virus in culture. Format: cell-based. To be noted: read-out: Growth Inhibition P.o (12.5).
The subject of assay [8] is Leptosphaeria nodorum. Nature of the assay: Antifungal activity test against various pathogenic fungi, hypha extension on PDA plates (Test Example 3). Format: cell-based. As to conditions: Parastagonospora nodorum, read-out: Growth Inhibition L.n (0.8).
Assay [9] concerns Pyrenophora graminea. The assay is described as above. To be noted: read-out: Growth Inhibition P.g (12.5). Format: cell-based.
Assay [10] deals with Venturia inaequalis. The assay is described as above. Format: cell-based. As to conditions: read-out: Growth Inhibition V.i (3.2).
Assay [11] concerns Septoria tritici. The assay is described as above. Format: cell-based. As to conditions: Zymoseptoria tritici, read-out: Growth Inhibition S.t (100).
In assay [12] the test system is Pseudocercosporella herpotrichoides. The assay is described as above. Format: cell-based. As to conditions: Oculimacula yallundae, read-out: Growth Inhibition P.h (25).
[13] abbreviates: 1.6 ppm in PDA culture medium, cultured 1 to 7 days.
Setting [14] is: length of non-contracted area relative to compound (m-2), 0.5 µl of 200 mg/l suspension applied to wheat leaf (Abukumawase), inoculated after one day.
Where [15] appears, read: 100 ppm in PDA culture medium, cultured 1 to 7 days.
Where [16] appears, read: 3.2 ppm in PDA culture medium, cultured 1 to 7 days.
Where [17] appears, read: Leptosphaeria nodorum, 0.8 ppm in PDA culture medium, cultured 1 to 7 days.
The mark [18] stands for this setting: 12.5 ppm in PDA culture medium, cultured 1 to 7 days.

Where two headings read alike, the source gives them in different places.

By inhibition is commonly meant the relative decrease from the control value, in per cent. The term pest or weed control denotes the degree to which the test organism was suppressed or injured, in per cent.

With `CC(Cc1cccc(C(F)(F)F)c1)CN(C)Cc1ccc(Cl)nc1` (centres unmarked) [(a), 6-chloro-N-methyl-[2-methyl-3-(3-trifluoromethylphenyl)propyl]-3-pyridylmethylamine], the inhibition at 1.6 ppm in [1] (setting [13]) is 20 to 40%. Besides, the pest or weed control at 125 µg/mL in [2] was determined as 70%. For the same compound, the pest or weed control at 100 µg/mL in assay [3] amounted to 50%. Further, in assay [4] (setting [14]), the “Relative Mobility” value amounted to 1.

As for `CC(Cc1cccc(OC(F)(F)F)c1)CN(C)Cc1ccc(Cl)nc1` (centres unmarked) [(b), 6-chloro-N-methyl-[2-methyl-3-(3-trifluoromethoxyphenyl)propyl]-3-pyridylmethylamine], the inhibition at 1.6 ppm in assay [1] (setting [13]) lay in the range of 40 to 70%. This compound yielded a pest or weed control at 125 µg/mL in [2] of 80%. The pest or weed control at 100 µg/mL in assay [3] is 60%. Also, the “Relative Mobility” value in assay [4] (setting [14]) is listed as 3.

As to `CC(Cc1cccc(Cl)c1Cl)CN(C)Cc1ccc(Cl)nc1` (centres unmarked) [(c-1), 6-chloro-N-[3-(2,3-dichlorophenyl)-2-methylpropyl]-N-me thyl-3-pyridylmethylamine], the inhibition at 1.6 ppm in [1] (setting [13]) was 20 to 40%. This compound also came in with a pest or weed control at 125 µg/mL in [2] of 40%. Further, the pest or weed control at 100 µg/mL in assay [3] turned out to be 0%. Moreover, the “Relative Mobility” value in [4] (setting [14]) was found to be 1.

On to `CC(Cc1ccccc1Cl)CN(C)Cc1ccc(Cl)nc1` (centres unmarked) [(c-2), 6-chloro-N-[3-(2-chlorophenyl)-2-methylpropyl]-N-methyl-3-pyridylmethylamine, reference compound], for which, in assay [5] (setting [15]), the inhibition at 100 ppm lay within 20 to 40%. In addition, the inhibition at 1.6 ppm in assay [1] (setting [13]) was in the range of 20 to 40%. For the same compound, the pest or weed control at 125 µg/mL in assay [2] came out at 40%. In assay [3], the pest or weed control at 100 µg/mL stood at 0%. The inhibition at 3.2 ppm in [6] (setting [16]) and in assay [10] (setting [16]) was 20 to 40% in each case. The inhibition at 12.5 ppm was in the range of 40 to 70% in assay [7] and 20 to 40% in [9] (setting [18]). Moreover, the “Relative Mobility” value in [4] (setting [14]) worked out at 1. Besides, the inhibition at 0.8 ppm in assay [8] (setting [17]) lay in the range of 40 to 70%.

As for `CC(Cc1cccc(Cl)c1)CN(C)Cc1ccc(Cl)nc1` (centres unmarked) [(c-3), 6-chloro-N-[3-(3-chlorophenyl)-2-methylpropyl]-N-methyl-3-pyridylmethylamine], in assay [1] (setting [13]), the inhibition at 1.6 ppm was 20 to 40%. In addition, in assay [2], the pest or weed control at 125 µg/mL stood at 50%. In assay [3], this compound registered a pest or weed control at 100 µg/mL of 0%. Besides, the “Relative Mobility” value in [4] (setting [14]) was determined as 1.

Regarding `CC(Cc1cccc(F)c1)CN(C)Cc1ccc(Cl)nc1` (centres unmarked) [(c-4), 6-chloro-N-[3-(3-fluorophenyl)-2-methylpropyl]-N-methyl-3-pyridylmethylamine, reference compound], the inhibition at 100 ppm in assay [5] (setting [15]) was 20 to 40%. For the same compound, in [1] (setting [13]), the inhibition at 1.6 ppm was under 20%. The pest or weed control at 125 µg/mL in [2] worked out at 10%. Besides, in assay [3], the pest or weed control at 100 µg/mL was 0%. Also, the inhibition at 3.2 ppm in assay [6] (setting [16]) and in assay [10] (setting [16]) was 20 to 40% throughout. The values for the inhibition at 12.5 ppm in [7] and in assay [9] (setting [18]) were 40 to 70% and 20 to 40%, respectively. Also, in assay [4] (setting [14]), the “Relative Mobility” value is 1. In addition, the inhibition at 0.8 ppm in assay [8] (setting [17]) lay in the range of 40 to 70%.

For `CC(Cc1ccc2c(c1)OCO2)CN(C)Cc1ccc(Cl)nc1` (centres unmarked) [(d), 6-chloro-N-[2-methyl-3-(3,4-methylenedioxyphenyl)propyl]-N-methyl-3-pyridylmethylamine], the inhibition at 1.6 ppm in assay [1] (setting [13]) was under 20%. The compound further came in with a pest or weed control at 125 µg/mL in assay [2] of 10%. In assay [3], this compound showed a pest or weed control at 100 µg/mL of 0%. Besides, the “Relative Mobility” value in assay [4] (setting [14]) was determined as 1.

As to `Cc1ccc(CC(C)CN(C)Cc2ccc(Cl)nc2)cc1C` (centres unmarked) [(m-1), 6-chloro-N-[3-(3,4-dimethylphenyl)-2-methylpropyl]-N-me thyl-3-pyridylmethylamine], the inhibition at 1.6 ppm in [1] (setting [13]) was 20 to 40%. The compound further returned a pest or weed control at 125 µg/mL in assay [2] of 10%. Also, the pest or weed control at 100 µg/mL in assay [3] is 10%. Besides, in assay [4] (setting [14]), the “Relative Mobility” value turned out to be 1.

For the compound `CC(Cc1ccc(C(C)(C)C)cc1)CN(C)Cc1ccc(Cl)nc1` (centres unmarked) [(m-2), N-[3-(4-t-butylphenyl)-2-methylpropyl]-6-chloro-N-methy 1-3-pyridylmethylamine], the “Relative Mobility” value in [4] (setting [14]) was 1.

In the case of `COc1cccc(CC(C)CN(C)Cc2ccc(Cl)nc2)c1` (centres unmarked) [(m-3), 6-chloro-N-[3-(3-methoxyphenyl)-2-methylpropyl]-N-methy 1-3-pyridylmethylamine], the “Growth Inhibition B.c (1.6)” value in assay [1] (setting [13]) is 1 (Hypha extension inhibition rate of less than 20%). Besides, the “Control Value” in assay [2] and in assay [3] was 0% throughout. The “Relative Mobility” value in assay [4] (setting [14]) was found to be 1.

With `CC(Cc1ccc(C(F)(F)F)c(F)c1)CN(C)Cc1ccc(Cl)nc1` (centres unmarked) [Compound I-9, 6-chloro-N-[3-(3-fluoro-4-trifluoromethylphenyl)-2-methylpropyl]-N-methyl-3-pyridylmethylamine], the inhibition at 1.6 ppm in [1] (setting [13]) fell in the range of 70 to 90%. Further, the pest or weed control at 125 µg/mL in assay [2] was 100%. In [3], this compound had a pest or weed control at 100 µg/mL of 100%. Further, in [11] (Septoria tritici, 100 ppm in PDA culture medium, cultured 1 to 7 days), the inhibition at 100 ppm fell in the range of 70 to 90%. Besides, in assay [4] (setting [14]), the “Relative Mobility” value is listed as 3.

`CC(Cc1ccc(C(F)(F)F)c(F)c1F)CN(C)Cc1ccc(Cl)nc1` (centres unmarked) [Compound I-10]: the inhibition at 100 ppm in [5] and in assay [11] was 70 to 90% each time. Also, the inhibition at 1.6 ppm in assay [1] is over 90%. Also, the “Control Value” in assay [2] and in assay [3] was 100% throughout. In assay [12], the inhibition at 25 ppm was over 90%. The inhibition at 3.2 ppm in assay [6] and in assay [10] was 70 to 90% throughout. The inhibition at 12.5 ppm in assay [7] and in assay [9] was 70 to 90% throughout. The “Relative Mobility” value in assay [4] (24 h, 200 ug/mL) was 3. Moreover, in assay [8], the inhibition at 0.8 ppm was in the range of 70 to 90%.

`CC(Cc1ccc(F)c(OC(F)(F)F)c1)CN(C)Cc1ccc(Cl)nc1` (centres unmarked) [Compound I-16]: the inhibition at 1.6 ppm in [1] lay in the range of 70 to 90%. In addition, the “Control Value” in assay [2] and in assay [3] was 100% in each case. Besides, the “Relative Mobility” value in assay [4] (24 h, 200 ug/mL) is listed as 9. The inhibition at 0.8 ppm in assay [8] was over 90%.

Values taken from EP1375483A1, “6-CHLORO-3-PYRIDYLMETHYLPROPYLAMINE DERIVATIVES, PREPARATION PROCESS THEREOF AND BACTERICIDES” (KUREHA KAGAKU KOGYO KABUSHIKI KAISHA, priority 2001, dated 2001).
